Source: article PMC6753678, “Fueling Open Innovation for Malaria Transmission-Blocking Drugs: Hundreds of Molecules Targeting Early Parasite Mosquito Stages” (Frontiers in Microbiology, 2019)
Where two headings read alike, the source gives them in different places.

Experiments:
[1] = tested on: 3D7-strain P. falciparum asexual parasites; assay: P. falciparum asexual growth inhibition assay (Pf GIA); format: cell-based, Plasmodium falciparum; settings: dose response confirmation; read-out: Pf asexual growth inhibition assays IC50
Method in brief: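 Read-out was lactate dehydrogenase activity measured by absorbance at 650 nm after freezing and thawing, against 50 μM chloroquine and DMSO controls. Before that, asexual 3D7 cultures (0.25% parasitemia, 2% hematocrit) had 72 h dose-response compound exposure at 37°C in 5% CO2/5% O2/90% N2; three independent replicates averaged.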

[2] = tested on: P. berghei ookinete development; settings: for % inhibition, Replicate A / % inhibition, Replicate B: primary screen at 1 μM
[3] = tested on: HepG2 cells; assay: HepG2 cytotoxicity assay; settings: for IC50: read-out: HepG2 cytotoxicity assay IC50, dose response confirmation; for Pb ODA (this manuscript) HepG2 cytoxicity: HepG2 cytotoxicity listed with the Pb ODA data set (this manuscript)
Method in brief: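 Cells at 2,500 per well in MEM with 10% fetal bovine serum and 1% NEAA were exposed to test compounds for 48 h at 37°C, 5% CO2. Viability was read by fluorescence, with percent inhibition calculated against 50 μM doxorubicin (positive) and DMSO (negative) controls.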

[4] = read-out: Pb ODA IC50, this manuscript
[5] = read-out: Pb Ookinete development assay IC50, dose response confirmation
[6] = unified HepG2 value across the three screens
[7] = read-out: Pb ODA (this manuscript) IC50, P. berghei ookinete development assay, this manuscript
[8] = HepG2 values of the three screens unified

Row | Structure (SMILES) | IC50 [1] | Is compound selective in assay? Pb ODA active? ([2]; 1: YES, 0: NO) | % inhibition, Replicate A [2] | % inhibition, Replicate B [2] | IC50 [2, 4] | IC50 [2, 5] | IC50 [3] | Unified cytotox [3, 6] | Is compound selective in assay? Pb ODA active? [2] | IC50 [2, 7] | Pb ODA (this manuscript) HepG2 cytoxicity [3] | Unified cytotox [3, 8] | HepG2 cytoxicity (Pb ODA, this manuscript) [3]
1 | CCCCc1ccc(-c2ccc3[nH]c(C)c(Br)c(=O)c3c2)cc1 [TCMDC-135463] | 77 nM | 0 (0: NO) | 56.53% | 70.28% | 2990 nM | 3000 nM | 10000 nM | 10.00 µM |  |  |  |  | 
2 | COc1ccc2ncc(F)c(CCN3CCC(NCc4ccc5c(c4)CCO5)CC3)c2n1.Cl [TCMDC-135491] | 879 nM |  | 14.40% | 53.74% |  | 3390 nM | 31600 nM |  | 0 (key: 1: YES; 0: NO) | 3390 nM | 31.62 µM |  | 
3 | O=C(NCC1CC1)C1CCN(C(c2ccc(Cl)cc2)c2ccc(Cl)cc2)CC1 [TCMDC-135522] | 305 nM | 1 (1: YES) | 38.16% | 71.31% |  | 1590 nM | 100000 nM | 100.00 µM |  |  |  |  | 
4 | Cc1[nH]c(C)c(-c2ccc(Nc3ccc(C(F)(F)F)cn3)cc2)c(=O)c1Br [TCMDC-135546] | 14 nM |  | 85.12% | 90.38% |  | 5.45 nM | 980 nM |  | 1 (key: 1: YES; 0: NO) |  | 0.98 µM |  | 
5 | Cc1[nH]c(C)c([N+](=O)[O-])c(=O)c1-c1ccc(Oc2ccc(OC(F)(F)F)cc2)cc1 [TCMDC-135555] | 177 nM |  | 67.14% | 51.32% |  | 2810 nM | 100000 nM |  | 1 (key: 1: YES; 0: NO) | 2810 nM | 100.00 µM |  | 
6 | COc1cc(F)c2ncc(Cl)c(CCN3CCC(NCc4ccc5c(c4)NC(=O)CS5)CC3)c2c1.Cl [TCMDC-135620] | 15 nM | 1 (1: YES) | 131.37% | 63.52% | 470 nM | 467 nM | 10600 nM | 10.59 µM |  |  |  |  | 
7 | COc1cc(F)c2ncc(Cl)c(CCN3CCC(NCc4ccc5c(n4)NC(=O)CO5)CC3)c2c1.Cl [TCMDC-135621] | 2590 nM |  | 69.33% | 64.08% |  | 1270 nM | 27200 nM |  | 1 (key: 1: YES; 0: NO) |  | 27.23 µM |  | 
8 | COc1cc(F)c2ncc(Cl)c(CCN3CCC(NCc4ccc5c(c4)NC(=O)CO5)CC3)c2c1.Cl [TCMDC-135623] | 339 nM |  | 70.96% | 86.73% |  | 541 nM | 12300 nM |  | 1 (key: 1: YES; 0: NO) | 540 nM | 12.30 µM |  | 
9 | COc1ccc2ncc(F)c(CCN3C4CCC3CC(NCc3ccc5c(c3)OCCO5)C4)c2n1.Cl (stereo not drawn) [TCMDC-135638] | 995 nM |  | 30.43% | 54.56% |  | 4240 nM | 39800 nM |  | 0 (key: 1: YES; 0: NO) | 4240 nM | 39.81 µM |  | 
10 | COc1ccc2ncc(C#N)c(CCN3CCC(NCc4ccc5c(c4)NC(=O)CO5)CC3)c2c1.Cl [TCMDC-135645] | 553 nM |  | 122.09% | 92.16% |  | 457 nM | 38900 nM |  | 1 (key: 1: YES; 0: NO) | 460 nM | 38.90 µM |  | 
11 | COc1ccc(CCc2ccc(-c3c(C)[nH]c(C)c(Cl)c3=O)cc2)cc1 [TCMDC-135654] | 20 nM | 1 (1: YES) | 86.19% | 104.99% | 140 nM | 143 nM | 100000 nM |  |  |  |  | 100.00 µM | 
12 | COc1ccc(C#Cc2ccc(-c3c(C)[nH]c(C)c(Cl)c3=O)cc2)cc1 [TCMDC-135655] | 73 nM | 1 (1: YES) | 78.44% | 70.65% | 1160 nM | 1160 nM | 100000 nM |  |  |  |  | 100.00 µM | 
13 | Cc1[nH]c(C)c(-c2ccc(OCc3cccc(C(F)(F)F)c3)nc2)c(=O)c1Br [TCMDC-135656] | 41 nM | 1 (1: YES) | 92.61% | 102.80% | 110 nM | 106 nM | 8610 nM |  |  |  |  | 8.61 µM | 8.61 µM
14 | Cc1[nH]c(C)c(-c2ccc(OCc3ccc(F)cc3)nc2)c(=O)c1Br [TCMDC-135657] | 173 nM | 1 (1: YES) | 61.60% | 80.51% | 600 nM | 597 nM | 100000 nM |  |  |  |  | 100.00 µM | 
15 | Cc1[nH]c(C)c(-c2ccc(OCc3cc(F)cc(F)c3)nc2)c(=O)c1Cl [TCMDC-135676] | 36 nM | 0 (0: NO) | 78.17% | 102.44% | 2070 nM | 2070 nM | 7850 nM |  |  |  |  | 7.85 µM | 7.85 µM
16 | Cc1[nH]c(C)c(-c2ccc(-c3ccc(OC(F)(F)F)cc3)nc2)c(=O)c1Cl [TCMDC-135677] | 397 nM | 1 (1: YES) | 103.64% | 93.64% | 270 nM | 265 nM | 23700 nM |  |  |  |  | 23.71 µM | 23.71 µM
17 | Cc1[nH]c(C)c(-c2ccc(CCc3ccc(N)cc3)cc2)c(=O)c1Cl [TCMDC-135678] | 279 nM | 1 (1: YES) | 46.90% | 71.02% | 1090 nM | 1090 nM | 100000 nM |  |  |  |  | 100.00 µM | 
18 | Cc1[nH]c(C)c(-c2ccc(OCc3cc(F)cc(F)c3)nc2)c(=O)c1Br [TCMDC-135683] | 188 nM | 1 (1: YES) | 82.45% | 85.99% | 410 nM | 409 nM | 25400 nM |  |  |  |  | 25.41 µM | 25.41 µM
19 | COc1nc2c(CCN3CCC(NCc4ccc5c(n4)NC(=O)CO5)CC3)c(Cl)cnc2cc1F.Cl [TCMDC-135766] | 2740 nM |  | 65.11% | 58.19% |  | 3720 nM | 42700 nM |  | 1 (key: 1: YES; 0: NO) | 3720 nM | 42.66 µM |  | 
